From patent publication US9403813B2, “Azetidine amide derivatives as orexin receptor antagonists” (ACTELION PHARMACEUTICALS LTD, priority 2013, dated 2016)

How the values were obtained:
human orexin-2 receptor = human orexin-2 receptor (Homo sapiens (Human), UniProt O43614); experiment: Intracellular calcium measurements (FLIPR), antagonism of orexin-A response; format: cell-based; conditions: CHO cells expressing human orexin-2 receptor, 3 nM orexin-A, geometric mean if determined several times, read-out: IC50 OX2
Chain of human orexin-2 receptor (O43614 whole entry): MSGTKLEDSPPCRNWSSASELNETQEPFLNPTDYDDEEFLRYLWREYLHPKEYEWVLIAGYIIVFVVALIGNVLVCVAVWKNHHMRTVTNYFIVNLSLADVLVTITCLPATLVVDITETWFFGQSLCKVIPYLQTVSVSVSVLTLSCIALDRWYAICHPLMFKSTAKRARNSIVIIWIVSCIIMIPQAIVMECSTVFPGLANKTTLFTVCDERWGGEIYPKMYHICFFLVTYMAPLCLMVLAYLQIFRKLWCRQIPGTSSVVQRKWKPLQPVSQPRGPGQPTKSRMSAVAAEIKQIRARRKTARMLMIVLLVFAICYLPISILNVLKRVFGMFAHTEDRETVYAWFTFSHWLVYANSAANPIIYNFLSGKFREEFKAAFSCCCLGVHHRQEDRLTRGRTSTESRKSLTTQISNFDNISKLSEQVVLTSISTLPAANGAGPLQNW
Method in brief: (§1)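 CHO cells expressing human OX1 or OX2 receptor, loaded with fluo-4 AM plus probenecid, preincubated with antagonist 120 min before 3 nM orexin-A challenge. FLIPR calcium peak heights compared with agonist-plus-vehicle response. IC50 possibly normalized to on-plate reference; geometric mean of repeat determinations.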

human orexin-1 receptor = human orexin-1 receptor (Homo sapiens (Human), UniProt O43613); experiment: as above; format: cell-based; conditions: CHO cells expressing human orexin-1 receptor, 3 nM orexin-A, geometric mean if determined several times, read-out: IC50 OX1
Chain of human orexin-1 receptor (O43613 whole entry): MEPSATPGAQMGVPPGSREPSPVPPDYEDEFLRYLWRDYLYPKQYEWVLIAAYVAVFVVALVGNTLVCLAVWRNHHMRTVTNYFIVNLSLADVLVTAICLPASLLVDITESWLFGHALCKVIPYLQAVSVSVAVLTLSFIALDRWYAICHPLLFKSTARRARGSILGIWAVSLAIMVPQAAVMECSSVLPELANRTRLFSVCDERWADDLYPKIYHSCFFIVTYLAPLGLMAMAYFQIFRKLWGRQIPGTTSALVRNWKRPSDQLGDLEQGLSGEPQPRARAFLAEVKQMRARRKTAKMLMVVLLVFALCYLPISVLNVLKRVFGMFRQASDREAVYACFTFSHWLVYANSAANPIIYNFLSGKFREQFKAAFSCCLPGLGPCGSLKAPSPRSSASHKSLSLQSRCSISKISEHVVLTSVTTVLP
Method in brief: as §1

Row | Structure (SMILES) | IC50 (human orexin-2 receptor) | IC50 (human orexin-1 receptor)
1 | Cc1c(Cl)cccc1-c1nc([C@@H]2CCN2C(=O)c2ccc(Cl)cc2-n2nccn2)no1 [Example 107, {(S)-2-[5-(3-Chloro-2-methyl-phenyl)-[1,2,4]oxadiazol-3-yl]-azetidin-1-yl}-(4-chloro-2-[1,2,3]triazol-2-yl-phenyl)-methanone] | 0.013 µM | 0.317 µM
2 | Cc1c(Cl)cccc1-c1nc([C@@H]2CCN2C(=O)c2ccc(C(F)(F)F)cc2-n2nccn2)no1 [Example 108, {(S)-2-[5-(3-Chloro-2-methyl-phenyl)-[1,2,4]oxadiazol-3-yl]-azetidin-1-yl}-(2-[1,2,3]triazol-2-yl-4-trifluoromethyl-phenyl)-methanone] | 0.028 µM | 0.759 µM
3 | Cc1c(Cl)cccc1-c1nc([C@@H]2CCN2C(=O)c2cc(F)ccc2-c2ncccn2)no1 [Example 115, {(S)-2-[5-(3-Chloro-2-methyl-phenyl)-[1,2,4]oxadiazol-3-yl]-azetidin-1-yl}-(5-fluoro-2-pyrimidin-2-yl-phenyl)-methanone] | 0.122 µM | 0.984 µM
4 | Cc1ccc(-c2ncccn2)c(C(=O)N2CC[C@H]2c2noc(-c3cccc(Cl)c3C)n2)c1 [Example 117, {(S)-2-[5-(3-Chloro-2-methyl-phenyl)-[1,2,4]oxadiazol-3-yl]-azetidin-1-yl}-(5-methyl-2-pyrimidin-2-yl-phenyl)-methanone] | 0.032 µM | 0.606 µM
5 | Cc1ccc(-n2nccn2)c(C(=O)N2CC[C@H]2c2nnc(-c3ccccc3)[nH]2)c1 [Example 120, (5-Methyl-2-[1,2,3]triazol-2-yl-phenyl)-[(S)-2-(5-phenyl-4H-[1,2,4]triazol-3-yl)-azetidin-1-yl]-methanone] | 0.45 µM | 13.4 µM
6 | Cc1ccc(C(=O)N2CC[C@H]2c2nnc(-c3ccccc3)[nH]2)c(-n2nccn2)c1 [Example 121, (4-Methyl-2-[1,2,3]triazol-2-yl-phenyl)-[(S)-2-(5-phenyl-4H-[1,2,4]triazol-3-yl)-azetidin-1-yl]-methanone] | 0.322 µM | 9.07 µM
7 | CCOc1ncccc1-c1nnc([C@@H]2CCN2C(=O)c2cc(C)ccc2-n2nccn2)[nH]1 [Example 122, {(S)-2-[5-(2-Ethoxy-pyridin-3-yl)-4H-[1,2,4]triazol-3-yl]-azetidin-1-yl}-(5-methyl-2-[1,2,3]triazol-2-yl-phenyl)-methanone] | 0.092 µM | 2.3 µM
8 | CCOc1ncccc1-c1nnc([C@@H]2CCN2C(=O)c2ccc(C)cc2-n2nccn2)[nH]1 [Example 123, {(S)-2-[5-(2-Ethoxy-pyridin-3-yl)-4H-[1,2,4]triazol-3-yl]-azetidin-1-yl}-(4-methyl-2-[1,2,3]triazol-2-yl-phenyl)-methanone] | 0.316 µM | 2.04 µM
9 | Cc1ccc(-n2nccn2)c(C(=O)N2CC[C@H]2c2nnc(-c3cccc(Cl)c3C)[nH]2)c1 [Example 124, {(S)-2-[5-(3-Chloro-2-methyl-phenyl)-4H-[1,2,4]triazol-3-yl]-azetidin-1-yl}-(5-methyl-2-[1,2,3]triazol-2-yl-phenyl)-methanone] | 0.238 µM | 5.88 µM
10 | Cc1ccc(-n2nccn2)c(C(=O)N2CC[C@H]2c2nnc(-c3ccccc3OC(F)(F)F)[nH]2)c1 [Example 125, (5-Methyl-2-[1,2,3]triazol-2-yl-phenyl)-{(S)-2-[5-(2-trifluoromethoxy-phenyl)-4H-[1,2,4]triazol-3-yl]-azetidin-1-yl}-methanone] | 0.056 µM | 2.43 µM
11 | COc1c(Cl)cccc1-c1nnc([C@@H]2CCN2C(=O)c2cc(C)ccc2-n2nccn2)[nH]1 [Example 126, {(S)-2-[5-(3-Chloro-2-methoxy-phenyl)-4H-[1,2,4]triazol-3-yl]-azetidin-1-yl}-(5-methyl-2-[1,2,3]triazol-2-yl-phenyl)-methanone] | 0.17 µM | 7.23 µM
12 | Cc1ccc(C(=O)N2CC[C@H]2c2nnc(-c3ccccc3OC(F)(F)F)[nH]2)c(-n2nccn2)c1 [Example 127, (4-Methyl-2-[1,2,3]triazol-2-yl-phenyl)-{(S)-2-[5-(2-trifluoromethoxy-phenyl)-4H-[1,2,4]triazol-3-yl]-azetidin-1-yl}-methanone] | 0.011 µM | 0.866 µM
13 | Cc1cc(C(=O)N2CC[C@H]2c2nnc(-c3ccccc3OC(F)(F)F)[nH]2)c(-n2nccn2)cc1C [Example 128, (4,5-Dimethyl-2-[1,2,3]triazol-2-yl-phenyl)-{(S)-2-[5-(2-trifluoromethoxy-phenyl)-4H-[1,2,4]triazol-3-yl]-azetidin-1-yl}-methanone] | 0.009 µM | 0.414 µM
14 | COc1cc(C(=O)N2CC[C@H]2c2nnc(-c3ccccc3OC(F)(F)F)[nH]2)c(-n2nccn2)cc1C [Example 129, (5-Methoxy-4-methyl-2-[1,2,3]triazol-2-yl-phenyl)-{(S)-2-[5-(2-trifluoromethoxy-phenyl)-4H-[1,2,4]triazol-3-yl]-azetidin-1-yl}-methanone] | 0.006 µM | 0.454 µM
15 | O=C(c1ccc(Cl)cc1-n1nccn1)N1CC[C@H]1c1nnc(-c2ccccc2OC(F)(F)F)[nH]1 [Example 132, (4-Chloro-2-[1,2,3]triazol-2-yl-phenyl)-{(S)-2-[5-(2-trifluoromethoxy-phenyl)-4H-[1,2,4]triazol-3-yl]-azetidin-1-yl}-methanone] | 0.016 µM | 0.315 µM
16 | O=C(c1ccc(C(F)(F)F)cc1-n1nccn1)N1CC[C@H]1c1nnc(-c2ccccc2OC(F)(F)F)[nH]1 [Example 133, (2-[1,2,3]Triazol-2-yl-4-trifluoromethyl-phenyl)-{(S)-2-[5-(2-trifluoromethoxy-phenyl)-4H-[1,2,4]triazol-3-yl]-azetidin-1-yl}-methanone] | 0.017 µM | 0.364 µM

Molecules with a lower IC50 (human orexin-2 receptor), results first:

Row | IC50 (human orexin-2 receptor) | IC50 (human orexin-1 receptor) | Structure (SMILES)
17 | 0.005 µM | 0.561 µM | COc1cc(C(=O)N2CC[C@H]2c2noc(-c3cccc(Cl)c3C)n2)c(-c2ncccn2)cc1C [Example 116, {(S)-2-[5-(3-Chloro-2-methyl-phenyl)-[1,2,4]oxadiazol-3-yl]-azetidin-1-yl}-(5-methoxy-4-methyl-2-pyrimidin-2-yl-phenyl)-methanone]
18 | 0.005 µM | 0.245 µM | Cc1cc(-n2nccn2)c(C(=O)N2CC[C@H]2c2nnc(-c3ccccc3OC(F)(F)F)[nH]2)cc1Cl [Example 130, (5-Chloro-4-methyl-2-[1,2,3]triazol-2-yl-phenyl)-{(S)-2-[5-(2-trifluoromethoxy-phenyl)-4H-[1,2,4]triazol-3-yl]-azetidin-1-yl}-methanone]
19 | 0.005 µM | 0.497 µM | COc1cc(C(=O)N2CC[C@H]2c2nnc(-c3ccccc3OC(F)(F)F)[nH]2)c(-n2nccn2)cc1Cl [Example 131, (4-Chloro-5-methoxy-2-[1,2,3]triazol-2-yl-phenyl)-{(S)-2-[5-(2-trifluoromethoxy-phenyl)-4H-[1,2,4]triazol-3-yl]-azetidin-1-yl}-methanone]
20 | 0.004 µM | 0.081 µM | COc1c(Cl)cccc1-c1nc([C@@H]2CCN2C(=O)c2ccc(C)cc2-n2nccn2)no1 [Example 118, {(S)-2-[5-(3-Chloro-2-methoxy-phenyl)-[1,2,4]oxadiazol-3-yl]-azetidin-1-yl}-(4-methyl-2-[1,2,3]triazol-2-yl-phenyl)-methanone]
21 | 0.004 µM | 0.038 µM | COc1c(Cl)cccc1-c1nc([C@@H]2CCN2C(=O)c2ccc(Cl)cc2-n2nccn2)no1 [Example 119, {(S)-2-[5-(3-Chloro-2-methoxy-phenyl)-[1,2,4]oxadiazol-3-yl]-azetidin-1-yl}-(4-chloro-2-[1,2,3]triazol-2-yl-phenyl)-methanone]
22 | 0.003 µM | 0.132 µM | COc1c(Cl)cccc1-c1nc([C@@H]2CCN2C(=O)c2cc(C)ccc2-n2nccn2)no1 [Example 109, {(S)-2-[5-(3-Chloro-2-methoxy-phenyl)-[1,2,4]oxadiazol-3-yl]-azetidin-1-yl}-(5-methyl-2-[1,2,3]triazol-2-yl-phenyl)-methanone]
23 | 0.002 µM | 0.026 µM | Cc1ccc(-c2ccccc2)c(C(=O)N2CC[C@H]2c2noc(-c3cccc(Cl)c3C)n2)c1 [Example 114, {(S)-2-[5-(3-Chloro-2-methyl-phenyl)-[1,2,4]oxadiazol-3-yl]-azetidin-1-yl}-(4-methyl-biphenyl-2-yl)-methanone]
24 | 0.001 µM | 0.046 µM | COc1c(Cl)cccc1-c1nc([C@@H]2CCN2C(=O)c2cc(C)c(C)cc2-n2nccn2)no1 [Example 110, {(S)-2-[5-(3-Chloro-2-methoxy-phenyl)-[1,2,4]oxadiazol-3-yl]-azetidin-1-yl}-(4,5-dimethyl-2-[1,2,3]triazol-2-yl-phenyl)-methanone]
25 | 0.001 µM | 0.07 µM | COc1cc(C(=O)N2CC[C@H]2c2noc(-c3cccc(Cl)c3OC)n2)c(-n2nccn2)cc1Cl [Example 112, {(S)-2-[5-(3-Chloro-2-methoxy-phenyl)-[1,2,4]oxadiazol-3-yl]-azetidin-1-yl}-(4-chloro-5-methoxy-2-[1,2,3]triazol-2-yl-phenyl)-methanone]
26 | 0.001 µM | 0.051 µM | COc1c(Cl)cccc1-c1nc([C@@H]2CCN2C(=O)c2cc(Cl)c(C)cc2-n2nccn2)no1 [Example 113, {(S)-2-[5-(3-Chloro-2-methoxy-phenyl)-[1,2,4]oxadiazol-3-yl]-azetidin-1-yl}-(5-chloro-4-methyl-2-[1,2,3]triazol-2-yl-phenyl)-methanone]
27 | 0.0007 µM | 0.082 µM | COc1cc(C(=O)N2CC[C@H]2c2noc(-c3cccc(Cl)c3OC)n2)c(-n2nccn2)cc1C [Example 111, {(S)-2-[5-(3-Chloro-2-methoxy-phenyl)-[1,2,4]oxadiazol-3-yl]-azetidin-1-yl}-(5-methoxy-4-methyl-2-[1,2,3]triazol-2-yl-phenyl)-methanone]
